Values of other authors as cited in patent US10308937B2, “Combination long acting compositions and methods for Hepatitis C” (GlaxoSmithKline Intellectual Property (No. 2) Limited, priority 2014, dated 2019).

Details: patients treated at currently recommended doses

## NC(=O)c1ncn([C@@H]2O[C@H](CO)[C@@H](O)[C@H]2O)n1 [Ribavirin]
  patients with significant hemolysis: 10-20 % of patients
